Values after ≈ are worked out from the molar mass of the structure shown. Like-named read-outs stand apart in the source and are kept apart here.
How the values were obtained:
[1] = test system: E. coli DH10B EC1082 TetA; assay: MIC, E. coli DH10B recombinantly expressing tetracycline-resistance gene; conditions: arabinose-induced, ampicillin in medium
[2] = Preliminary pharmacokinetics in Sprague Dawley rats; conditions: rat, in vivo, po; Sprague Dawley rats (n = 3), initial preliminary testing; read-out: oral bioavailability (% F)
E. coli DH10B EC971 LacZ = assay: MIC, E. coli DH10B recombinantly expressing control gene; conditions: E. coli DH10B, arabinose-induced, ampicillin in medium
[3] = test system: Legionella pneumophila, 70 isolates, serogroups 1-6; assay: microbe, parasite or virus in culture; assay type: cell-based
E. coli DH10B EC970 TetK = assay: MIC, E. coli DH10B recombinantly expressing tetracycline-resistance gene; conditions: arabinose-induced, ampicillin in medium
Gram-positive pathogens = assay: Broth microdilution MIC, respiratory/skin pathogens (Table 12)
[4] = Non-GLP monkey pharmacokinetics; assay type: in vivo; conditions: cynomolgus monkeys; for half-life: read-out: T½ (converted)
Method: As a result of promising pharmacokinetic data in Sprague Dawley rats,^a Compound 102 was evaluated in 3 non-naîve cynomolgus monkeys. […] Nine to ten plasma samples were drawn for each dosing route up to 24 hours into heparin-coated vacutainer tubes. Dose formulations were verified with a 5-point calibration curve. The plasma concentration of the compound was quantified by LC/MS/MS using an internal standard. Quality control (QC) samples (low, medium, high; minimum of 6 standards with LLOQ<3 ng/mL) and standard curves (in duplicate) were included in the bioanalytical run. WinNonLin was used to determine individual and mean PK parameters±standard deviation (F, Cmax, Tmax, T½, CL, Vss, AUC(0-t), AUC(0-∞), and MRT).

[5] = test system: E. coli DH10B EC1153 Tet(X); assay: MIC, E. coli DH10B recombinantly expressing tetracycline-resistance gene; conditions: arabinose-induced, ampicillin in medium
S. pneumoniae SP106 = assay type: cell-based; conditions: SP106, plates containing compound at 5× the MIC, 5% sheep blood
[6] = test system: Viridans group streptococci; assay: Broth microdilution MIC by tetracycline resistance phenotype (Table 10); assay type: cell-based; set-up: unit not given beside the values
S. aureus Smith = assay: Mouse systemic infection (septicemia) model, CD-1 mice; conditions: Staphylococcus aureus, in Mus musculus, 48 h
E. coli DH10B EC969 TetM = assay: MIC, E. coli DH10B recombinantly expressing tetracycline-resistance gene; conditions: arabinose-induced, ampicillin in medium
H. influenzae HI551 = assay: Rat lung infection model; assay type: in vivo; conditions: H. influenzae intratracheal
[7] = test system: Gram-negative respiratory pathogens; assay: Broth microdilution MIC, respiratory pathogens; assay type: cell-based; conditions: generally
[8] = test system: Gram-negative and Gram-positive organisms (clinical isolates); assay: Broth microdilution MIC against clinical isolates (CLSI M7-A8), Table 9; assay type: cell-based
[9] = test system: S. pneumoniae strain SP514; assay: Immunocompetent CD-1 murine lung infection model; assay type: in vivo; conditions: immunocompetent CD-1 mice, SP514, orally dosed 30 mg/kg at 5, 24 and 36 hours post-infection (FIG. 2)
Method: Compound 102 was tested in an immunocompetent CD-1 murine model of lung infection challenged with S. pneumoniae strain SP514.

S. maltophila = assay: Broth microdilution MIC by tetracycline resistance phenotype (Table 10); assay type: cell-based; set-up: unit not given beside the values
[10] = cynomolgus monkey, plasma, IV 1 mg/kg, average of 3
[11] = cynomolgus monkey, plasma, PO 10 mg/kg, average of 3

CN(C)[C@@H]1C(O)=C(C(N)=O)C(=O)[C@@]2(O)C(O)=C3C(=O)c4c(O)c5c(c(F)c4C[C@H]3C[C@@H]12)CN(C(C)(C)C)C5 [Compound 102]
MIC EC1082 TetA [1]: 2 | bioavailability [2]: 48.3% | MIC EC971 LacZ (E. coli DH10B EC971 LacZ): 2 | MIC50 [3]: 2 µg/mL (≈ 3.78 µM) | MIC90 [3]: 8 µg/mL (≈ 15.1 µM) | MIC EC970 TetK (E. coli DH10B EC970 TetK): 0.5 | MICs, fold higher than those of tigecycline (Gram-positive pathogens; Gram-positive aerobic pathogens, generally): 2-4 fold | MICs relative to tetracycline (Gram-positive pathogens; pneumococci and beta-hemolytic streptococci): several-fold lower than those of tetracycline | MICs relative to tetracycline (Gram-positive pathogens; staphylococci): comparable to those of tetracycline | AUC(0-inf) [4, 10]: 9310 ng·h/mL | AUC(0-t) [4, 10]: 4850 ng·h/mL | clearance [4, 10]: 1.86 mL/min/kg | half-life [4, 10]: 23.3 h | Vd ([4]; cynomolgus monkey, plasma, IV 1 mg/kg, average of 3, read-out: Vdss): 3.4 L/kg | bioavailability ([4]; cynomolgus monkey, plasma, PO 10 mg/kg vs IV 1 mg/kg): 33.7% | AUC(0-inf) [4, 11]: 35400 ng·h/mL | AUC(0-t) [4, 11]: 16300 ng·h/mL | Cmax [4, 11]: 1260 ng/mL | Tmax [4, 11]: 4 h | half-life [4, 11]: 24.8 h | Co ([4]; IV 1 mg/kg, average of 3): 3170 ng/mL | MIC EC1153 Tet(X) [5]: 4 | spontaneous resistance frequency (S. pneumoniae SP106): 1×10^−8 | MIC50 ([6]; TET NS, n=32): 0.12 | MIC90 ([6]; TET NS, n=32): 0.25 | MIC50 ([6]; TET S, n=65): 0.06 | MIC90 ([6]; TET S, n=65): 0.12 | responders at 3 mg/kg (S. aureus Smith; iv, read-out: Percent survival at 48 hours, IV (3 mg/kg)): 100% | responders at 30 mg/kg (S. aureus Smith; po, read-out: Percent survival at 48 hours, PO (30 mg/kg)): 83% | MIC EC969 TetM (E. coli DH10B EC969 TetM): 1 | log10 reduction in CFU versus the 72 hour untreated control, IV (H. influenzae HI551; 25 mg/kg IV at 5, 24 and 48 hours): 3.40±0.31 log10 | log10 reduction in CFU versus the 72 hour untreated control, oral (H. influenzae HI551; 100 mg/kg orally at 5, 24, 48 hours (FIG. 4)): 2.93±0.27 log10 | MICs, fold higher than those of tigecycline [7]: 2-4 fold | MICs against tetracycline resistant isolates relative to tetracycline susceptible isolates [8]: not notably altered | MICs relative to tetracycline [8]: comparable MICs relative to tetracycline | potency against tetracycline resistant isolates [8]: maintained potency | potency by MIC50/MIC90, Gram-positive relative to Gram-negative pathogens [8]: more potent by MIC50/MIC90 against Gram-positive pathogens relative to Gram-negative pathogens | potency relative to tetracycline [8]: more potent | MIC50 ([8]; Acinetobacter lwoffii, n=29, read-out: MIC50): 0.12 µg/mL (≈ 0.227 µM) | MIC90 ([8]; Acinetobacter lwoffii, n=29, read-out: MIC90): 0.5 µg/mL (≈ 0.944 µM) | MICs, fold lower than tetracycline ([8]; Acinetobacter lwoffli, S. maltophila, and streptococci): 2-4 fold | MIC50 ([8]; Enterobacter cloacae, n=29, read-out: MIC50): 4 µg/mL (≈ 7.55 µM) | MIC90 ([8]; Enterobacter cloacae, n=29, read-out: MIC90): 8 µg/mL (≈ 15.1 µM) | MIC50 ([8]; Escherichia coli, n=40, read-out: MIC50): 2 µg/mL (≈ 3.78 µM) | MIC90 ([8]; Escherichia coli, n=40, read-out: MIC90): 4 µg/mL (≈ 7.55 µM) | MIC50 ([8]; Kiebsielia oxytoca, n=30, read-out: MIC50): 1 µg/mL (≈ 1.89 µM) | MIC90 ([8]; Kiebsielia oxytoca, n=30, read-out: MIC90): 4 µg/mL (≈ 7.55 µM) | MIC50 ([8]; Klebsiella aerogenes, Enterobacter aerogenes, n=30, read-out: MIC50): 2 µg/mL (≈ 3.78 µM) | MIC90 ([8]; Klebsiella aerogenes, Enterobacter aerogenes, n=30, read-out: MIC90): 2 µg/mL (≈ 3.78 µM) | MIC50 ([8]; Klebsiella pneumoniae, Klebsiella pneumonia, n=27, read-out: MIC50): 4 µg/mL (≈ 7.55 µM) | MIC90 ([8]; Klebsiella pneumoniae, Klebsiella pneumonia, n=27, read-out: MIC90): 16 µg/mL (≈ 30.2 µM) | MIC50 ([8]; Morganella morganii, n=30, read-out: MIC50): 8 µg/mL (≈ 15.1 µM) | MIC90 ([8]; Morganella morganii, n=30, read-out: MIC90): 16 µg/mL (≈ 30.2 µM) | MIC50 ([8]; Proteus vulgaris, n=29, read-out: MIC50): 8 µg/mL (≈ 15.1 µM) | MIC90 ([8]; Proteus vulgaris, n=29, read-out: MIC90): > 16 µg/mL | MIC50 ([8]; Salmonella species, n=30): 2 µg/mL (≈ 3.78 µM) | MIC90 ([8]; Salmonella species, n=30): 2 µg/mL (≈ 3.78 µM) | MIC50 ([8]; Serratia marcescens, n=30, read-out: MIC50): 4 µg/mL (≈ 7.55 µM) | MIC90 ([8]; Serratia marcescens, n=30, read-out: MIC90): 8 µg/mL (≈ 15.1 µM) | MIC50 ([8]; Shigella species, n=30, read-out: MIC50): 0.5 µg/mL (≈ 0.944 µM) | MIC50 ([8]; Staphylococcus aureus, Staphylococcus aureus (MRSA PVL+), n=30, read-out: MIC50): 0.25 µg/mL (≈ 0.472 µM) | MIC90 ([8]; Staphylococcus aureus, Staphylococcus aureus (MRSA PVL+), n=30, read-out: MIC90): 0.25 µg/mL (≈ 0.472 µM) | MIC50 ([8]; Staphylococcus aureus, Staphylococcus aureus MRSA (includes MRSA PVL+ group), n=105, read-out: MIC50): 0.5 µg/mL (≈ 0.944 µM) | MIC90 ([8]; Staphylococcus aureus, Staphylococcus aureus MRSA (includes MRSA PVL+ group), n=105, read-out: MIC90): 2 µg/mL (≈ 3.78 µM) | MIC50 ([8]; Stenotrophomonas maltophilia, n=29, read-out: MIC50): 0.5 µg/mL (≈ 0.944 µM) | MIC90 ([8]; Stenotrophomonas maltophilia, n=29, read-out: MIC90): 2 µg/mL (≈ 3.78 µM) | MIC50 ([8]; Streptococcus anginosus, n=20, read-out: MIC50): 0.06 µg/mL (≈ 0.113 µM) | MIC90 ([8]; Streptococcus anginosus, n=20, read-out: MIC90): 0.25 µg/mL (≈ 0.472 µM) | MIC50 ([8]; Streptococcus intermedius, n=30, read-out: MIC50): 0.12 µg/mL (≈ 0.227 µM) | MIC90 ([8]; Streptococcus intermedius, n=30, read-out: MIC90): 0.12 µg/mL (≈ 0.227 µM) | MIC50 ([8]; Streptococcus mitis, n=29, read-out: MIC50): 0.12 µg/mL (≈ 0.227 µM) | MIC90 ([8]; Streptococcus mitis, n=29, read-out: MIC90): 0.25 µg/mL (≈ 0.472 µM) | MIC50 ([8]; Streptococcus sanguis, n=18, read-out: MIC50): 0.06 µg/mL (≈ 0.113 µM) | MIC90 ([8]; Streptococcus sanguis, n=18, read-out: MIC90): 0.12 µg/mL (≈ 0.227 µM) | MICs, fold higher than those of tigecycline ([8]; evaluated Gram-negative and Gram-positive pathogens, generally): 2-4 fold | log10 reduction in CFU versus the 48 hour untreated control [9]: 6.14+/−0.66 log10 | MIC50 (S. maltophila; TET NS, n=19): 1 | MIC90 (S. maltophila; TET NS, n=19): 4 | MIC50 (S. maltophila; TET S, n=10): 0.5 | MIC90 (S. maltophila; TET S, n=10): 0.5

Source: patent US20170107179A1 (Tetraphase Pharmaceuticals, Inc., priority 2010, published 2017)
